# US11793849B2, “Method of Chinese herbal medicine extract used for treating multiple diseases caused by drug resistant bacteria infection” (priority 2016, dated 2023)
# Legend:
# MDRAB = test: MIC determination, microdilution broth method; assay type: cell-based, Acinetobacter baumannii
# Procedure: Determination methods of a Minimal Inhibitory Concentration (MIC) and a Minimum Bactericidal Concentration (MBC) of a test product: the MIC and the MBC of the Pithecellobium clypearia Benth water or ethanol extract to the MDRAB are determined by a microdilution broth method. And it is operated by referring to the microdilution broth method recommended by National Committee for Clinical Laboratory Standards (NCCLS).
# ATCC27853 = test: MIC determination, control strain; assay type: cell-based
# Procedure: Determination methods of a Minimal Inhibitory Concentration (MIC) and a Minimum Bactericidal Concentration (MBC) of a test product: the MIC and the MBC of the Pithecellobium clypearia Benth water or ethanol extract to the MDRAB are determined by a microdilution broth method.
# [1] = single use, 20 MDRABs, EA=10% ethanol extract
# [2] = single use, 20 MDRABs, EA=water extract
# [3] = single use, 20 MDRABs, section of the 60% ethanol extract
# [4] = single use, 20 MDRABs, section of the 95% ethanol extract
substance,measurement,setting,value
Polymycin B [POLB],MIC50,"MDRAB; MDRABs, EA=60% ethanol extract",4 µg/mL
same,MIC90,"MDRAB; MDRABs, EA=60% ethanol extract",16 µg/mL
same,MIC Range,"MDRAB; MDRABs, EA=60% ethanol extract",0.5 to 64 µg/mL
same,MIC50,"MDRAB; MDRABs, EA=95% ethanol extract",4 µg/mL
same,MIC90,"MDRAB; MDRABs, EA=95% ethanol extract",16 µg/mL
same,MIC Range,"MDRAB; MDRABs, EA=95% ethanol extract",0.5 to 64 µg/mL
same,MIC50,MDRAB; [1],4 µg/mL
same,MIC90,MDRAB; [1],16 µg/mL
same,MIC Range,MDRAB; [1],0.5 to 64 µg/mL
same,MIC50,MDRAB; [2],4 µg/mL
same,MIC90,MDRAB; [2],16 µg/mL
same,MIC Range,MDRAB; [2],0.5 to 64 µg/mL
same,MIC50,MDRAB; [3],4 µg/mL
same,MIC90,MDRAB; [3],16 µg/mL
same,MIC50,MDRAB; [4],4 µg/mL
same,MIC90,MDRAB; [4],16 µg/mL
same,MIC,"MDRAB; strain A1, EA=60% ethanol extract",8 µg/mL
same,MIC,"MDRAB; strain A1, EA=95% ethanol extract",8 µg/mL
same,MIC,"MDRAB; strain A1, single use, EA=10% ethanol extract",8 µg/mL
same,MIC,"MDRAB; strain A1, single use, EA=water extract",8 µg/mL
same,MIC,"MDRAB; strain A2, EA=60% ethanol extract",2 µg/mL
same,MIC,"MDRAB; strain A2, EA=95% ethanol extract",2 µg/mL
same,MIC,"MDRAB; strain A2, single use, EA=10% ethanol extract",2 µg/mL
same,MIC,"MDRAB; strain A2, single use, EA=water extract",2 µg/mL
same,MIC,"MDRAB; strain A3, EA=60% ethanol extract",2 µg/mL
same,MIC,"MDRAB; strain A3, EA=95% ethanol extract",2 µg/mL
same,MIC,"MDRAB; strain A3, single use, EA=10% ethanol extract",2 µg/mL
same,MIC,"MDRAB; strain A3, single use, EA=water extract",2 µg/mL
same,MIC,"MDRAB; strain A4, EA=60% ethanol extract",2 µg/mL
same,MIC,"MDRAB; strain A4, EA=95% ethanol extract",2 µg/mL
same,MIC,"MDRAB; strain A4, single use, EA=10% ethanol extract",2 µg/mL
same,MIC,"MDRAB; strain A4, single use, EA=water extract",2 µg/mL
same,MIC,"MDRAB; strain A5, EA=60% ethanol extract",4 µg/mL
same,MIC,"MDRAB; strain A5, EA=95% ethanol extract",4 µg/mL
same,MIC,"MDRAB; strain A5, single use, EA=10% ethanol extract",4 µg/mL
same,MIC,"MDRAB; strain A5, single use, EA=water extract",4 µg/mL
same,MIC,"MDRAB; strain A6, EA=60% ethanol extract",8 µg/mL
same,MIC,"MDRAB; strain A6, EA=95% ethanol extract",8 µg/mL
same,MIC,"MDRAB; strain A6, single use, EA=10% ethanol extract",8 µg/mL
same,MIC,"MDRAB; strain A6, single use, EA=water extract",8 µg/mL
same,MIC,"MDRAB; strain A7, EA=60% ethanol extract",4 µg/mL
same,MIC,"MDRAB; strain A7, EA=95% ethanol extract",4 µg/mL
same,MIC,"MDRAB; strain A7, single use, EA=10% ethanol extract",4 µg/mL
same,MIC,"MDRAB; strain A7, single use, EA=water extract",4 µg/mL
same,MIC,"MDRAB; strain A8, EA=60% ethanol extract",8 µg/mL
same,MIC,"MDRAB; strain A8, EA=95% ethanol extract",8 µg/mL
same,MIC,"MDRAB; strain A8, single use, EA=10% ethanol extract",8 µg/mL
same,MIC,"MDRAB; strain A8, single use, EA=water extract",8 µg/mL
same,MIC,"MDRAB; strain A9, EA=60% ethanol extract",1 µg/mL
same,MIC,"MDRAB; strain A9, EA=95% ethanol extract",1 µg/mL
same,MIC,"MDRAB; strain A9, single use, EA=10% ethanol extract",1 µg/mL
same,MIC,"MDRAB; strain A9, single use, EA=water extract",1 µg/mL
same,MIC,"MDRAB; strain A10, EA=60% ethanol extract",32 µg/mL
same,MIC,"MDRAB; strain A10, EA=95% ethanol extract",32 µg/mL
same,MIC,"MDRAB; strain A10, single use, EA=10% ethanol extract",32 µg/mL
same,MIC,"MDRAB; strain A10, single use, EA=water extract",32 µg/mL
same,MIC,"MDRAB; strain A11, EA=60% ethanol extract",16 µg/mL
same,MIC,"MDRAB; strain A11, EA=95% ethanol extract",16 µg/mL
same,MIC,"MDRAB; strain A11, single use, EA=10% ethanol extract",16 µg/mL
same,MIC,"MDRAB; strain A11, single use, EA=water extract",16 µg/mL
same,MIC,"MDRAB; strain A12, EA=60% ethanol extract",2 µg/mL
same,MIC,"MDRAB; strain A12, EA=95% ethanol extract",2 µg/mL
same,MIC,"MDRAB; strain A12, single use, EA=10% ethanol extract",2 µg/mL
same,MIC,"MDRAB; strain A12, single use, EA=water extract",2 µg/mL
same,MIC,"MDRAB; strain A13, EA=60% ethanol extract",2 µg/mL
same,MIC,"MDRAB; strain A13, EA=95% ethanol extract",2 µg/mL
same,MIC,"MDRAB; strain A13, single use, EA=10% ethanol extract",2 µg/mL
same,MIC,"MDRAB; strain A13, single use, EA=water extract",2 µg/mL
same,MIC,"MDRAB; strain A14, EA=60% ethanol extract",0.5 µg/mL
same,MIC,"MDRAB; strain A14, EA=95% ethanol extract",0.5 µg/mL
same,MIC,"MDRAB; strain A14, single use, EA=10% ethanol extract",0.5 µg/mL
same,MIC,"MDRAB; strain A14, single use, EA=water extract",0.5 µg/mL
same,MIC,"MDRAB; strain A15, EA=60% ethanol extract",2 µg/mL
same,MIC,"MDRAB; strain A15, EA=95% ethanol extract",2 µg/mL
same,MIC,"MDRAB; strain A15, single use, EA=10% ethanol extract",2 µg/mL
same,MIC,"MDRAB; strain A15, single use, EA=water extract",2 µg/mL
same,MIC,"MDRAB; strain A16, EA=60% ethanol extract",4 µg/mL
same,MIC,"MDRAB; strain A16, EA=95% ethanol extract",4 µg/mL
same,MIC,"MDRAB; strain A16, single use, EA=10% ethanol extract",4 µg/mL
same,MIC,"MDRAB; strain A16, single use, EA=water extract",4 µg/mL
same,MIC,"MDRAB; strain A17, EA=60% ethanol extract",64 µg/mL
same,MIC,"MDRAB; strain A17, EA=95% ethanol extract",64 µg/mL
same,MIC,"MDRAB; strain A17, single use, EA=10% ethanol extract",64 µg/mL
same,MIC,"MDRAB; strain A17, single use, EA=water extract",64 µg/mL
same,MIC,"MDRAB; strain A18, EA=60% ethanol extract",4 µg/mL
same,MIC,"MDRAB; strain A18, EA=95% ethanol extract",4 µg/mL
same,MIC,"MDRAB; strain A18, single use, EA=10% ethanol extract",4 µg/mL
same,MIC,"MDRAB; strain A18, single use, EA=water extract",4 µg/mL
same,MIC,"MDRAB; strain A19, EA=60% ethanol extract",4 µg/mL
same,MIC,"MDRAB; strain A19, EA=95% ethanol extract",4 µg/mL
same,MIC,"MDRAB; strain A19, single use, EA=10% ethanol extract",4 µg/mL
same,MIC,"MDRAB; strain A19, single use, EA=water extract",4 µg/mL
same,MIC,"MDRAB; strain A20, EA=60% ethanol extract",2 µg/mL
same,MIC,"MDRAB; strain A20, EA=95% ethanol extract",2 µg/mL
same,MIC,"MDRAB; strain A20, single use, EA=10% ethanol extract",2 µg/mL
same,MIC,"MDRAB; strain A20, single use, EA=water extract",2 µg/mL
same,MIC,ATCC27853; EA=10% ethanol extract,1 µg/mL
same,MIC,ATCC27853; EA=60% ethanol extract,1 µg/mL
same,MIC,ATCC27853; EA=95% ethanol extract,1 µg/mL
same,MIC,ATCC27853; EA=water extract,1 µg/mL
